These compounds were tested against human recombinant 5-HT2A receptor (Homo sapiens (Human), UniProt P28223) (assay: 5-HT2A receptor binding inhibition test ([3H]-Ketanserin)). Conditions: Jump-In HEK cell membrane, 25° C. 1.5 hours, read-out: h-5-HT2A Ki.
Method: Test Example 1: 5-HT2A Receptor Binding Inhibition Test
(§1) (Each Experimental Condition)
Cell membrane: 15 μg of Jump-In HEK cell membrane (expressing human recombinant 5-HT2A receptor) per well
(§2) Assay buffer: Tris-HCl 50 mmol/L (pH 7.4) containing NaCl 120 mmol/L, MgCl2·6H2O 1 mmol/L, KCl 5 mmol/L, 0.1% BSA and CaCl2 2 mmol/L
Radioactive ligand: [^3H]-Ketanserin with a final concentration of around Kd value calculated by the following method
Non-specific ligand: Serotonin HCl with a final concentration of 500 μmol/L
(§3) The Kd value is calculated when the lot of cell membrane is changed. In advance, 0.5 μL of a 1 mmol/L compound for non-specific binding calculation dissolved in DMSO or DMSO is dispensed into a microplate, and the cell membrane is diluted with an Assay buffer. The radioactive ligand solution is serially diluted and the count is confirmed with a liquid scintillator. Assay buffer containing diluted cell membrane is dispensed into a microplate at 50 μL/well. Then, the radioactive ligand solution is dispensed into a microplate at 50 μL/well, and the plate is sealed. It is allowed to stand at room temperature (25° C.) for 1.5 hours. During this period, 50 mmol/L Tris-HCl (pH 7.4) is dispensed into a GF/B UniFilter plate at 50 μL/well and allowed to stand at 4° C. for 1 hour or longer. After that, filtration is performed with Cell harvester (PerkinElmer). The radioactive ligand solution is dispensed into an empty well of the GF/B UniFilter plate at 10 μL/well. After the GF/B UniFilter plate is dried at room temperature, MicroScinti 20 is dispensed into the GF/B UniFilter plate at 50 μL/well to seal the plate. The GF/B UniFilter plate is allowed to stand overnight at room temperature. The radioactivity of [^3H]-Ketanserin bound to the 5-HT2A receptor is measured using Microbeta2 (PerkinElmer) at a measurement time of 1 min/well. The Saturation curve is drawn from the measured value, and the Kd value is calculated from the slope of the Scatchard Plot.
(§4) (Binding Test of the Compound According to the Present Invention)
In advance, 0.5 μL of the compound solution dissolved in DMSO is dispensed into a microplate, and the cell membrane and the hot ligand are diluted with Assay buffer, respectively. Then, the Assay buffer containing the diluted cell membrane is dispensed into a microplate at 50 μL/well. Then, the radioactive ligand solution is dispensed into a microplate at 50 μL/well, and the plate is sealed. Then, it is allowed to stand at room temperature (25° C.) for 1.5 hours. During this period, 50 mmol/L Tris-HCl (pH 7.4) is dispensed into a GF/B UniFilter plate at 50 μL/well and allowed to stand at 4° C. for 1 hour or longer. After that, filtration is performed with Cell harvester (PerkinElmer). After the GF/B UniFilter plate is dried at room temperature, MicroScinti 20 is dispensed into the GF/B UniFilter plate at 50 μL/well to seal the plate. The GF/B UniFilter plate is allowed to stand overnight at room temperature. The radioactivity of [^3H]-Ketanserin bound to the 5-HT2A receptor is measured using Microbeta2 (PerkinElmer) at a measurement time of 1 min/well. The non-specific binding is calculated from the radioactivity of [^3H]-Ketanserin in the presence of 500 μmol/L Serotonin HCl which is the unlabeled ligand, and the total binding is calculated from the radioactivity of [^3H]-Ketanserin in the absence of the compound according to the present invention (Vehicle). Finally, the Ki value is calculated from the dose-response curve.
(§5) (The binding activity of the compound according to the present invention is calculated from the following binding inhibition rate (%).)
(§6) [formula] • a; mean cpm of non-specific binding • b; average cpm of total binding • c; cpm in the presence of the test compound

Sequence of human recombinant 5-HT2A receptor (P28223 whole entry): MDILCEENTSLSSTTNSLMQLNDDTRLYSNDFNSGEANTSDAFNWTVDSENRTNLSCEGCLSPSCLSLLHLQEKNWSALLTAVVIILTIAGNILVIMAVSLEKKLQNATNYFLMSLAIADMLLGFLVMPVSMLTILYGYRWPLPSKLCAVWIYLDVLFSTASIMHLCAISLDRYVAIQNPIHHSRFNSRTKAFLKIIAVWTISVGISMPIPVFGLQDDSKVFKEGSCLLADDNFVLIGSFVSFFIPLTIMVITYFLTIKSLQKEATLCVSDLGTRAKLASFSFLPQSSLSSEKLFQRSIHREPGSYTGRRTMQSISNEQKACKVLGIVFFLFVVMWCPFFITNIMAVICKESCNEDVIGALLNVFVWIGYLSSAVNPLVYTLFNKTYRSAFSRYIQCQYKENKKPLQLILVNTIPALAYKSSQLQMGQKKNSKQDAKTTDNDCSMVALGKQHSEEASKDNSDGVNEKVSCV

Ki [µM] | Compound
< 0.01 | COc1ccc(CC2=NOC3(CCN(C)CC34CC4)N2Cc2cc(C)n(C)n2)cc1 (racemic) [Compound I-034]
< 0.01 | CC(C)COc1ccc(CN(Cc2ccc(F)cn2)C2=NOC3(CCN(C)CC3)N2)cc1 [Compound I-007]
0.01 to 0.1 | Cc1nc(CN(Cc2ccc(OCC(C)C)cc2)C2=NOC3(CCN(C)CC3)N2)c(C)o1 [Compound I-117]
0.01 to 0.1 | Cc1cnc(CN(Cc2ccc(OCC(C)C)cc2)C2=NOC3(CCN(C)CC3)N2)o1 [Compound I-032]
< 0.01 | CC(C)COc1ccc(CN(Cc2ccn(C(F)F)n2)C2=NOC3(CCN(C)CC3)N2)cc1 [Compound I-015]
< 0.01 | CC(C)COc1ccc(CC2=NOC3(CCN(C)CC3)N2Cc2ccc(F)cc2O)cc1 [Compound I-004]
0.01 to 0.1 | Cc1nc(CN(Cc2ccc(OCC(C)C)cc2)C2=NOC3(CCN(C)CC3)N2)no1 [Compound I-018]
< 0.01 | CCCOc1ccc(CC2=NOC3(CCNCC34CC4)N2Cc2ccn(C)n2)cc1 (racemic) [Compound I-037]
0.01 to 0.1 | CCCOc1ccc(CC2=NOC3(CCN(C)CC3)N2Cc2ccn(C)n2)cc1 [Compound I-025]
< 0.01 | Cc1cc(CN2C(Cc3ccc(OC(F)F)cc3)=NOC23CCN(C)CC32CC2)nn1C (racemic) [Compound I-035]

Compound | Ki [µM]
CCCOc1ccc(CC2=NOC3(CCN(C)CC34CC4)N2Cc2ccc(F)cn2)cc1 (stereo not shown) [Compound I-026] | < 0.01
CC(C)COc1ccc(CN(Cc2ccn(C)n2)C2=NOC3(CCNCC3)N2)cc1 [Compound I-036] | < 0.01
CN1CCC2(CC1)NC(N(Cc1coc(C3CC3)n1)Cc1ccc(OCC(F)(F)F)cc1F)=NO2 [Compound I-108] | < 0.01
CCCCc1ccc(CN(Cc2cnn(C)n2)C2=NOC3(CCN(C)CC3)N2)cc1 [Compound I-133] | < 0.01

Same assay, conditions: Jump-In HEK cell membrane, 25° C. 1.5 hours, read-out: human serotonin 5-HT2A receptor binding activity Ki

Ki [µM] | Compound
0.00149 | Cc1nc(CN(Cc2nc3cc(Cl)ccc3o2)C2=NOC3(CCN(C)CC3)N2)co1 [Compound I-089]
0.000961 | CC(C)COc1ccc(CN(Cc2coc(C3CC3)n2)C2=NOC3(CCN(C)CC3)N2)cc1 [Compound I-049]
0.0198 | CC(C)COc1ccc(CC2=NOC3(CCNCC3)N2Cc2ccc(F)cc2O)cc1 [Compound I-003]

Each compound was assayed against human recombinant 5-HT2C receptor (Homo sapiens (Human), UniProt P28335) (assay: 5-HT2C receptor binding inhibition test ([3H]-Mesulergine)). Conditions: Jump-In HEK cell membrane, 37° C. 2 hours, read-out: h-5-HT2C Ki.
Sequence of human recombinant 5-HT2C receptor (P28335 33-458): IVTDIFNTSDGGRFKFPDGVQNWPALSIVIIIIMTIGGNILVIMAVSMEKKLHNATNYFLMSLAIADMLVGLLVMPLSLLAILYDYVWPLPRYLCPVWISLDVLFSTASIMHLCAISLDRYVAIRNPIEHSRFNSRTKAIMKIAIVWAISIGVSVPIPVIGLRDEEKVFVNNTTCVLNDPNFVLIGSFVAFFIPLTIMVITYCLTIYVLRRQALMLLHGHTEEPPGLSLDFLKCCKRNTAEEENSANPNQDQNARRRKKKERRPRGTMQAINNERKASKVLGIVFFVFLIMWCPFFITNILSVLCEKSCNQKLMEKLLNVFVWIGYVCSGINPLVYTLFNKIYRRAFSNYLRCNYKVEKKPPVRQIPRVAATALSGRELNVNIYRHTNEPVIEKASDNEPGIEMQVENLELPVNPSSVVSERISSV
Method: Test Example 2: 5-HT2C Receptor Binding Inhibition Test
as §1
Cell membrane: 0.5 μg of Jump-In HEK cell membrane (expressing human recombinant 5-HT2C receptor) per well
as §2
Radioactive ligand: [^3H]-Mesulergine with a final concentration of around Kd value calculated by the following method
Non-specific ligand: Serotonin HCl with a final concentration of […]
as §3, with “37° C.” for “room temperature (25° C.)”, “2” for “1.5”, “[^3H]-Mesulergine” for “[^3H]-Ketanserin”, “5-HT2C” for “5-HT2A”
as §4
In advance, 0.5 μL of the compound solution dissolved in DMSO is dispensed into a microplate, and the cell membrane and the hot ligand are diluted with Assay buffer, respectively. Then, the Assay buffer containing the diluted cell membrane is dispensed into a microplate at 50 μL/well. Then, the radioactive ligand solution is dispensed into a microplate at 50 μL/well, and the plate is sealed. Then, it is allowed to stand at 37° C. for 2 hours. During this period, 50 mmol/L Tris-HCl (pH 7.4) is dispensed into a GF/B UniFilter plate at 50 μL/well and allowed to stand at 4° C. for 1 hour or longer. After that, filtration is performed with Cell harvester (PerkinElmer). After the GF/B UniFilter plate is dried at room temperature, MicroScinti 20 is dispensed into the GF/B UniFilter plate at 50 μL/well, and the plate is sealed. The GF/B UniFilter plate is allowed to stand overnight at room temperature. The radioactivity of [^3H]-Mesulergine bound to the 5-HT2C receptor is measured using Microbeta2 (PerkinElmer) at a measurement time of 1 min/well. The non-specific binding is calculated from the radioactivity of […] in the presence of 500 μmol/L Serotonin HCl which is the unlabeled ligand, and the total binding is calculated from the radioactivity of [^3H]-Mesulergine in the absence of the compound according to the present invention (Vehicle). Finally, the Ki value is calculated from the dose-response curve.
as §5, §6

Ki [µM] | Compound
0.01 to 0.1 | COc1ccc(CC2=NOC3(CCN(C)CC34CC4)N2Cc2cc(C)n(C)n2)cc1 (racemic) [Compound I-034]
0.01 to 0.1 | CC(C)COc1ccc(CN(Cc2ccc(F)cn2)C2=NOC3(CCN(C)CC3)N2)cc1 [Compound I-007]
0.01 to 0.1 | Cc1nc(CN(Cc2ccc(OCC(C)C)cc2)C2=NOC3(CCN(C)CC3)N2)c(C)o1 [Compound I-117]
0.01 to 0.1 | Cc1cnc(CN(Cc2ccc(OCC(C)C)cc2)C2=NOC3(CCN(C)CC3)N2)o1 [Compound I-032]
0.01 to 0.1 | CC(C)COc1ccc(CN(Cc2ccn(C(F)F)n2)C2=NOC3(CCN(C)CC3)N2)cc1 [Compound I-015]
0.01 to 0.1 | CC(C)COc1ccc(CC2=NOC3(CCN(C)CC3)N2Cc2ccc(F)cc2O)cc1 [Compound I-004]
< 0.01 | Cc1nc(CN(Cc2ccc(OCC(C)C)cc2)C2=NOC3(CCN(C)CC3)N2)no1 [Compound I-018]
< 0.01 | CCCOc1ccc(CC2=NOC3(CCNCC34CC4)N2Cc2ccn(C)n2)cc1 (racemic) [Compound I-037]
0.01 to 0.1 | CCCOc1ccc(CC2=NOC3(CCN(C)CC3)N2Cc2ccn(C)n2)cc1 [Compound I-025]
< 0.01 | Cc1cc(CN2C(Cc3ccc(OC(F)F)cc3)=NOC23CCN(C)CC32CC2)nn1C (racemic) [Compound I-035]

Compound | Ki [µM]
CCCOc1ccc(CC2=NOC3(CCN(C)CC34CC4)N2Cc2ccc(F)cn2)cc1 (stereo not shown) [Compound I-026] | < 0.01
CC(C)COc1ccc(CN(Cc2ccn(C)n2)C2=NOC3(CCNCC3)N2)cc1 [Compound I-036] | < 0.01
CN1CCC2(CC1)NC(N(Cc1coc(C3CC3)n1)Cc1ccc(OCC(F)(F)F)cc1F)=NO2 [Compound I-108] | < 0.01
CCCCc1ccc(CN(Cc2cnn(C)n2)C2=NOC3(CCN(C)CC3)N2)cc1 [Compound I-133] | < 0.01

Same assay, conditions: Jump-In HEK cell membrane, 37° C. 2 hours, read-out: human serotonin 5-HT2C receptor binding activity Ki

Ki [µM] | Compound
0.00546 | Cc1nc(CN(Cc2nc3cc(Cl)ccc3o2)C2=NOC3(CCN(C)CC3)N2)co1 [Compound I-089]
0.000524 | CC(C)COc1ccc(CN(Cc2coc(C3CC3)n2)C2=NOC3(CCN(C)CC3)N2)cc1 [Compound I-049]
0.00411 | CC(C)COc1ccc(CC2=NOC3(CCNCC3)N2Cc2ccc(F)cc2O)cc1 [Compound I-003]

Source: patent US20250026765A1, “SPIROHETEROCYCLE DERIVATIVE HAVING SEROTONIN RECEPTOR BINDING ACTIVITY” (Shionogi & Co., Ltd., priority 2021, published 2025)
